Reference: the NIST ThermoML archive (doi:10.1016/j.fluid.2007.07.066)
± gives the expanded uncertainty stated by the source.

Assay: refractive index (Na D-line) (dimensionless); mn = molality of the nth substance listed, in mol/kg
Details: 298.15 K, 101 kPa, Liquid, Standard Abbe refractometry

O=P([O-])([O-])O.[Na+].[Na+] [disodium hydrogen phosphate] + O
Details	refractive index
m1 = 0.0049	1.3328 ± 0.0004
m1 = 0.0104	1.3329 ± 0.0004
m1 = 0.0154	1.3331 ± 0.0004
m1 = 0.0211	1.3333 ± 0.0004
m1 = 0.0413	1.334 ± 0.0004
m1 = 0.0712	1.3348 ± 0.0004
m1 = 0.1066	1.3357 ± 0.0004
m1 = 0.1437	1.3367 ± 0.0004
m1 = 0.1927	1.3379 ± 0.0004
m1 = 0.2475	1.3392 ± 0.0004
m1 = 0.3697	1.3421 ± 0.0004
m1 = 0.4438	1.3438 ± 0.0004
m1 = 0.5295	1.3458 ± 0.0004
m1 = 0.6125	1.3476 ± 0.0004
m1 = 0.6768	1.349 ± 0.0004
m1 = 0.7479	1.3505 ± 0.0004
m1 = 0.8346	1.3524 ± 0.0004
m1 = 0.9695	1.3551 ± 0.0004
